Results on 15 compounds are retold here after ChEMBL document CHEMBL1150860, “Cox-2 inhibitory effects of naturally occurring and modified fatty acids” (J Nat Prod, 2001).

Experiment [1] deals with T1, Prostaglandin G/H synthase 2 (Ovis aries, UniProt P79208).
T1 sequence (P79208 whole entry): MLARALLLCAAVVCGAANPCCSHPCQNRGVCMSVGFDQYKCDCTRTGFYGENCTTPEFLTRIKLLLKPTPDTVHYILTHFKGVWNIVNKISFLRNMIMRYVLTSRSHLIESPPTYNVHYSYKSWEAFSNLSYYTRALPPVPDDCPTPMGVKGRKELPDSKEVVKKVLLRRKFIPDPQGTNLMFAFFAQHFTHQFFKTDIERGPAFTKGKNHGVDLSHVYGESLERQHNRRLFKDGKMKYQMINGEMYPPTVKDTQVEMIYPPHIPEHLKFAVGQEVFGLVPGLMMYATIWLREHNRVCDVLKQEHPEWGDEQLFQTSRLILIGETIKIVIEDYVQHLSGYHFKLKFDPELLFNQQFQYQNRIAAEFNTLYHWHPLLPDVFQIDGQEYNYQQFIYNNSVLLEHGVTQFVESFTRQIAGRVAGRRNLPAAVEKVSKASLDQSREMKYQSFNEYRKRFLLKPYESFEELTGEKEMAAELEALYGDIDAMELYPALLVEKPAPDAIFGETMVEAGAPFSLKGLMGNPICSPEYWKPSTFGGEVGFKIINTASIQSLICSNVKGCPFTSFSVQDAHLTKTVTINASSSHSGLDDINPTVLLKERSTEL
In words: Inhibition of sheep COX2-mediated prostaglandin biosynthesis using [1-14C]arachidonic acid.

For experiment [2], the target named is T2, Prostaglandin G/H synthase 1 (Bos taurus, UniProt O62664).
T2 sequence (O62664 whole entry): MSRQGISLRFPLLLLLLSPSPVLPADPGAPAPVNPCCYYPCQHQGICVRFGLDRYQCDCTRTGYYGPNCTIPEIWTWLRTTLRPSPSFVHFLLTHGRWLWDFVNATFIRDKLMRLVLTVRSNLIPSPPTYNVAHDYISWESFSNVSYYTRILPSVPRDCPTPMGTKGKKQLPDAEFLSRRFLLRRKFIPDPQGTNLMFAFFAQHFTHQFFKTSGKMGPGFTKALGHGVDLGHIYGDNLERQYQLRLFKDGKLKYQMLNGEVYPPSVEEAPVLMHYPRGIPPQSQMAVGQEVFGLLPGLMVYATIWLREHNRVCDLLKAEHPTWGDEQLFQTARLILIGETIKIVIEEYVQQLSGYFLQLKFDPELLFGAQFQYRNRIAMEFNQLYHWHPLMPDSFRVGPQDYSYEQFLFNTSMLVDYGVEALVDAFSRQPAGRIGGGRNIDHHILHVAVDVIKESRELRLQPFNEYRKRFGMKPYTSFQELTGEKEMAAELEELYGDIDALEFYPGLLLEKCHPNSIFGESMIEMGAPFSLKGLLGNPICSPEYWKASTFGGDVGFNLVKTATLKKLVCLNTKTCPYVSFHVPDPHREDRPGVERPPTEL
Description: Inhibition of bovine COX1-mediated prostaglandin biosynthesis using [1-14C]arachidonic acid.

Experiment [3] can be described thus: Selectivity ratio for IC50 for sheep COX2 to IC50 for […].

The term IC50 denotes the point on the concentration scale where inhibition reaches its midpoint. Read a low IC50 as greater potency in that assay. For `CC/C=C\C/C=C\C/C=C\C/C=C\CCSCC(=O)O`, the 50% inhibitory concentration (IC50) in experiment [1] worked out at 160 µM; in experiment [2], 84 µM. Also, in experiment [3], the Ratio IC50 turned out to be 1.9.
With `CC/C=C\C/C=C\C/C=C\C/C=C\CCSCCCC(=O)O`, the concentration for half-maximal inhibition (IC50) in experiment [1] worked out at 3.9 µM; in experiment [2], 26 µM. The Ratio IC50 in experiment [3] was determined as 0.2.
`CC/C=C\C/C=C\C/C=C\C/C=C\CCOCC(=O)O`: the IC50 in experiment [1] and in experiment [2] was over 500 µM throughout.
`CC/C=C\C/C=C\C/C=C\CC/C=C/COCC(=O)O`: the IC50 in experiment [1] and in experiment [2] was over 500 µM throughout.
As to `CC/C=C\C/C=C\C/C=C\C/C=C\CC/C=C/COCC(=O)O`, the IC50 is 180 µM in experiment [1] and 50 µM in experiment [2]. Besides, the Ratio IC50 in experiment [3] stood at 3.6.
Turning to `CC/C=C\C/C=C\C/C=C\CC/C=C/CSCCCC(=O)O`, the IC50 in experiment [1] stood at 120 µM; in experiment [2], 81 µM. For the same compound, the Ratio IC50 in experiment [3] came out at 1.4.
For `CC/C=C\C/C=C\C/C=C\C/C=C\C/C=C\C/C=C\CCC(=O)O` [DOCONEXENT], the IC50 was found to be 9.8 µM in experiment [1] and 15 µM in experiment [2]. For the same compound, the Ratio IC50 in experiment [3] stood at 0.7.
For `CC/C=C\C/C=C\C/C=C\C/C=C\C/C=C\CCCC(=O)O` [ICOSAPENT], the figures for the half-maximal inhibitory concentration (IC50) in experiment [1] and in experiment [2] were 7.1 µM and 13 µM, respectively. Further, the Ratio IC50 in experiment [3] is 0.5.
On to `CCCCC/C=C\C/C=C\CCCCCCCC(=O)O` [LINOLEIC ACID], for which the results for the IC50 in experiment [1] and in experiment [2] were 94 µM and 170 µM, respectively. The Ratio IC50 in experiment [3] came to 0.6.
Regarding `CC/C=C\C/C=C\C/C=C\CCCCCCCC(=O)O` [LINOLENIC ACID], the figures for the concentration for half-maximal inhibition (IC50) in experiment [1] and in experiment [2] were 12 µM and 93 µM, respectively. For the same compound, the Ratio IC50 in experiment [3] worked out at 0.1.
As for `CCCCCCCCCCCCCC(=O)O` [MYRISTIC ACID], the IC50 in experiment [1] and in experiment [2] was over 500 µM in each case.
`CCCCCCCC/C=C\CCCCCCCC(=O)O` [OLEIC ACID]: the IC50 in experiment [1] and in experiment [2] was over 500 µM each time.
On to `CCCCCCCCCCCCCCCC(=O)O` [PALMITIC ACID], for which the IC50 in experiment [1] and in experiment [2] was over 500 µM each time.
Regarding `CCCCCCCCCCCCCCC(=O)O` [PENTADECANOIC ACID], the concentration for half-maximal inhibition (IC50) in experiment [1] and in experiment [2] was over 500 µM in each case.
For `CCCCCCCCCCCCCCCCCC(=O)O` [STEARIC ACID], the IC50 in experiment [1] and in experiment [2] was over 500 µM each time.
